# Results: US12421242B2, “Substituted tetrahydropyrrolo-pyridinone compounds and their use in treating medical conditions” (Karuna Therapeutics, Inc., priority 2022, dated 2025)
# Assays:
# [1] = molecular target: T1, rM4 receptors (Rattus norvegicus, UniProt P08485); test: Rat M4 PAM pERK assay; type: cell-based; conditions: PAM mode
# T1 construct: expressed in transfected cells; host or cells: CHO cells
# T1 sequence (P08485 1-478): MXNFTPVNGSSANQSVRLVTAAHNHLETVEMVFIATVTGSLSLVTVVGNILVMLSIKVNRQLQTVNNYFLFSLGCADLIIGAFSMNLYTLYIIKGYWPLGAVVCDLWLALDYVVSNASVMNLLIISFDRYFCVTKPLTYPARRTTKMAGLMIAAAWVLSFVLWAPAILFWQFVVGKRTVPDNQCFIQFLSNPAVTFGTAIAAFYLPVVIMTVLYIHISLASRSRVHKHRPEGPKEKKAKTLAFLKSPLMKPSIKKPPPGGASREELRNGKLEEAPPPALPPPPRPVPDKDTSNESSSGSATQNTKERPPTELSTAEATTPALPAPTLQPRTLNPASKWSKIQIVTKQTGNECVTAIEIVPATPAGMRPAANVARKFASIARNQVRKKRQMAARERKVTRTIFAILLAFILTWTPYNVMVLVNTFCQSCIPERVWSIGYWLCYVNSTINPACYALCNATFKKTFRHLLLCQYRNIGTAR
# Procedure, shortened: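 CHO cells expressing hM4 or rM4 were serum-starved 4 h, then given compound (ten-point curve, 10 μM top, duplicate) with an EC20 of acetylcholine (10 nM final) for 5 min at 37° C. Phospho-ERK in lysates was detected by TR-FRET.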
# [2] = molecular target: T2, human M4 receptor (Homo sapiens, UniProt P08173); test: M4 GTPγS PAM assay; type: biochemical; conditions: CHO-K1 membranes expressing human M4, with EC20 acetylcholine (40 nM)
# T2 construct: expressed in transfected cells
# T2 sequence (P08173 1-479): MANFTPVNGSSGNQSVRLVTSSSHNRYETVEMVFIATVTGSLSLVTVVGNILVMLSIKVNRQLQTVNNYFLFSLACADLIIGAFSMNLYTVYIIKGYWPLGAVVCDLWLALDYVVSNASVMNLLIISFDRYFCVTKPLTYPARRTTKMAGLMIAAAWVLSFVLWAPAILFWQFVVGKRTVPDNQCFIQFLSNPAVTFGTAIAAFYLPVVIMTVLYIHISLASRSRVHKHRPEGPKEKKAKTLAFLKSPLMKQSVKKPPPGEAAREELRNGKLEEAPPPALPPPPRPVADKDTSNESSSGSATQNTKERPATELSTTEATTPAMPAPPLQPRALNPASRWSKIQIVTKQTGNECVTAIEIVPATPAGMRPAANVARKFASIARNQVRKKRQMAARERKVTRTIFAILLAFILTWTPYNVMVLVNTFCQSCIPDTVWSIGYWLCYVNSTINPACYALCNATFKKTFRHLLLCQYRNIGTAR
# Procedure, shortened: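 Membranes from CHO-K1 cells stably expressing human M4 preincubated 10-15 min with compound in HEPES/MgCl2/NaCl buffer with 0.1 µM GDP, then with EC20 acetylcholine (40 nM) for 10-15 min. [35S]GTPγS added for 1 h at room temperature; filter-bound radioactivity counted by scintillation.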
EC50 [1] [nM],EC50 [2] [nM],SMILES
> 2000,100 to 500,COc1c2c(n(C)c(=O)c1C)CN(C(=O)c1cnn(C(F)(F)F)c1)C2 [Compound I-87]
100 to 500,< 100,"Cc1c2c(n(C)c(=O)c1Cl)CN(C(=O)c1cnn(C(F)(F)F)c1)[C@@H]2C [Compound I-76, (R)-3-Chloro-1,4,5-trimethyl-6-(1-(trifluoromethyl)-1H-pyrazole-4-carbonyl)-1,5,6,7-tetrahydro-2H-pyrrolo[3,4-b]pyridin-2-one]"
500 to 2000,100 to 500,"Cc1c2c(n(C)c(=O)c1Cl)CN(C(=O)c1cnn(C(F)(F)F)c1)C2 [Compound I-1, 3-chloro-1,4-dimethyl-6-(1-(Trifluoromethyl)-1H-pyrazole-4-carbonyl)-1,5,6,7-tetrahydro-2H-pyrrolo[3,4-b]pyridin-2-one]"
